From patent US10030016B2 (Sunesis Pharmaceuticals, Inc., priority 2009, dated 2018)
Structures can show the parent of a compound that is named as a salt. Where two headings read alike, the source gives them in different places.

Assays:
[1] = test system: phospho-akt (Thr308) in PC-3 cells; experiment: Inhibition of phospho-akt (Thr308) in PC-3 cells, MSD phospho-akt 308 ELISA kit; format: cell-based; settings: Homo sapiens
Outline: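 PC-3 cells were seeded overnight in growth medium with 10% FBS, then exposed to compound serially diluted threefold in serum-free medium for 2 hours. Lysates were captured overnight at 4 degrees on MSD plates and phospho-Akt Thr308 was detected electrochemiluminescently, against DMSO high and 5 μM wortmannin low controls.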

PDK1 = PDK1 (Homo sapiens (Human), UniProt O15530); experiment: PDK1 kinase assay (coupled PDK1/AKT/FAM-crosstide assay, IMAP fluorescence polarization); format: biochemical
PDK1, sequence (O15530 51-359): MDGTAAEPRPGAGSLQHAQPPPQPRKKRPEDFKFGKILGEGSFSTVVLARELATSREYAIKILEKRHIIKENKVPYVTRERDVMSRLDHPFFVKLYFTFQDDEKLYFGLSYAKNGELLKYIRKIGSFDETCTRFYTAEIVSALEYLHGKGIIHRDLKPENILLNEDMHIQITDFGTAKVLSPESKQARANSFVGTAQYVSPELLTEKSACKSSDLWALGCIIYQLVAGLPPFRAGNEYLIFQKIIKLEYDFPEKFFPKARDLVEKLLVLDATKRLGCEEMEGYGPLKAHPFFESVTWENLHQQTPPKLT
Outline: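 GST-tagged PDK1 (aa 51-359, 0.75 nM) was coupled to unphosphorylated GST-AKT2 140-467-PIFtide (10 nM) and 100 nM FAM-crosstide at 40 μM ATP, in Tris pH 7.2 buffer, for 30 min at 25 °C. Crosstide phosphorylation was read by IMAP fluorescence polarization (ΔmP) and fitted with a 4-parameter curve.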

[2] = inhibition of P308 Akt in PC-3 cells using MSD, 2 hours, no serum, read-out: EC50
[3] = inhibition of phospo-PDK1 in vitro
[4] = inhibition of P308 Akt in PC-3 cells, 2 hours, no serum, MSD, read-out: EC50

CC(N)CCc1nc(-c2ccc(CNc3ncc(C#N)nc3C(=O)N[C@@H](C)c3ccc(F)c(F)c3)cc2)cnc1N (stereo partly drawn) [Example 87, 3-{4-[5-Amino-6-(3-amino-butyl)-pyrazin-2-yl]-benzylamino}-6-cyano-pyrazine-2-carboxylic acid [(S)-1-(3,4-difluoro-phenyl)-ethyl]-amide]
EC50 [1, 2]: < 1000 nM | IC50 (PDK1; inhibition of PDK1 in vitro): < 100 nM

C[C@H](NC(=O)c1cccnc1NCc1ccc(-c2ccc3ncc(-n4ccnc4N)nc3c2)s1)c1ccc(F)c(F)c1 [Example 4.32, (S)-2-(((5-(3-(2-amino-1H-imidazol-1-yl)quinoxalin-6-yl)thiophen-2-yl)methyl)amino)-N-(1-(3,4-difluorophenyl)ethyl) nicotinamide]
EC50 ([1]; PC-3, 2 h, inhibition of P308 Akt in PC-3 cells, 2 hours, no serum, MSD, read-out: EC50): > 10000 nM | IC50 (PDK1; [3]): 100 to 1000 nM

Nc1ncnc2ccc(-c3ccc(CNc4ncc(C5COC5)cc4C(=O)NCc4ccc(F)c(F)c4)s3)cc12 [Ex. 8.8.4, 2-((5-(4-aminoquinazolin-6-yl)thiophen-2-yl)methylamino)-N-(3,4-difluorobenzyl)-5-(oxetan-3-yl)nicotinamide]
EC50 [1, 4]: < 1000 nM | IC50 (PDK1; [3]): < 100 nM

CC(C)Oc1cc(CNc2ncccc2C(=O)N(C)C2CC2)cc(-c2c[nH]c3ncc(C(=O)NC4CC4)cc23)c1 [Example 4.1.10, N-cyclopropyl-3-{3-[({3-[cyclopropyl(methyl)carbamoyl]pyridin-2-yl}amino)methyl]-5-(propan-2-yloxy)phenyl}-1H-pyrrolo[2,3-b] pyridine-5-carboxamide]
EC50 [1, 4]: 1000 to 10000 nM | IC50 (PDK1; [3]): > 5000 nM

C[C@H](NC(=O)c1cccnc1NCc1ncc(-c2ccc3ncc4ncn(C)c4c3c2)s1)c1ccc(F)c(F)c1 [Example 385, N-[(S)-1-(3,4-Difluoro-phenyl)-ethyl]-2-{[5-(1-methyl-1H-imidazo[4,5-c]quinolin-8-yl)-thiazol-2-ylmethyl]-amino}-nicotinamide]
EC50 [1, 2]: < 1000 nM | IC50 (PDK1; inhibition of PDK1 in vitro): < 100 nM

C[C@H](NC(=O)c1nc(C#N)cnc1NCc1ccc(-c2cnc3[nH]nc(N)c3n2)cc1)c1ccc(F)c(F)c1 [Example 182, 3-[4-(3-Amino-1H-pyrazolo[3,4-b]pyrazin-5-yl)-benzylamino]-6-cyano-pyrazine-2-carboxylic acid [(S)-1-(3,4-difluoro-phenyl)-ethyl]-amide]
EC50 ([1]; PC-3, 2 h): < 1000 nM | IC50 (PDK1; inhibition of PDK1 in vitro): < 100 nM

O=C(NCc1ccc(F)c(F)c1)c1cccnc1NCc1cccc(-c2c[nH]c3ncncc23)c1 [Example 6.2, 2-(3-(7H-pyrrolo[2,3-d]pyrimidin-5-yl)benzylamino)-N-(3,4-difluorobenzyl)nicotinamide]
EC50 [1, 4]: 1000 to 10000 nM | IC50 (PDK1; [3]): < 100 nM

Nc1ncnc2ccc(-c3ccc(CNc4ncc(-c5ccccc5)nc4C(=O)NCc4ccc(F)c(F)c4)s3)cc12 [Ex. 10.3, 3-({[5-(4-aminoquinazolin-6-yl)thiophen-2-yl]methyl}amino)-N-(3,4-difluorobenzyl)-6-phenylpyrazine-2-carboxamide]
EC50 [1, 4]: > 10000 nM | IC50 (PDK1; [3]): > 5000 nM

C[C@H](NC(=O)c1cc(C#N)cnc1NCc1ccc(-c2cnc(NCCO)cn2)cc1)c1ccc(F)cc1 [Example 227, 5-Cyano-N-[(S)-1-(4-fluoro-phenyl)-ethyl]-2-{4-[5-(2-hydroxy-ethylamino)-pyrazin-2-yl]-benzylamino}-nicotinamide]
EC50 [1, 2]: 1000 to 10000 nM | IC50 (PDK1; inhibition of PDK1 in vitro): 100 to 1000 nM

N#Cc1cnc(NCc2ccc(-c3ccc4ncnc(N)c4c3)s2)c(C(=O)NCc2ccc(F)cc2)n1 [Example 3.83, 3-(((5-(4-aminoquinazolin-6-yl)thiophen-2-yl)methyl)amino)-6-cyano-N-(4-fluorobenzyl)pyrazine-2-carboxamide (TFA salt)]
EC50 [1, 4]: < 1000 nM | IC50 (PDK1; [3]): < 100 nM

C[C@H](NC(=O)c1cc(C(F)(F)F)cnc1NCc1ccc(-c2cnc3[nH]c(=O)[nH]c3c2)cc1)c1ccc(F)c(F)c1 [Example 362, (S)-N-(1-(3,4-difluorophenyl)ethyl)-2-(4-(2-oxo-2,3-dihydro-1H-imidazo[4,5-b]pyridin-6-yl)benzylamino)-5-(trifluoromethyl)nicotinamide]
EC50 [1, 2]: < 1000 nM | IC50 (PDK1; inhibition of PDK1 in vitro): < 100 nM

N#Cc1cnc(NCc2ccc(-c3cnc4[nH]nc(N)c4c3)cc2)c(C(=O)Nc2ccc(F)cc2)c1 [Example 35, 2-(4-(3-amino-1H-pyrazolo[3,4-b]pyridin-5-yl)benzylamino)-5-cyano-N-(4-fluorophenyl) nicotinamide]
EC50 [1, 4]: < 1000 nM | IC50 (PDK1; [3]): < 100 nM

C[C@H](NC(=O)c1cc(C#N)cnc1NCC1CCN(c2cnc(N)cn2)CC1)c1ccc(F)cc1 [Example 61, (S)-2-(((1-(5-aminopyrazin-2-yl)piperidin-4-yl)methyl)amino)-5-cyano-N-(1-(4-fluorophenyl)ethyl)nicotinamide]
EC50 [1, 2]: > 10000 nM | IC50 (PDK1; inhibition of PDK1 in vitro): 1000 to 5000 nM

N#Cc1ccc(NC(=O)c2nc(C#N)cnc2NCc2ccc(-c3cnc4[nH]nc(N)c4c3)cc2)cc1 [Example 425, 3-(4-(3-amino-1H-pyrazolo[3,4-b]pyridin-5-yl)benzylamino)-6-cyano-N-(4-cyanophenyl) pyrazine-2-carboxamide]
EC50 [1, 2]: < 1000 nM | IC50 (PDK1; inhibition of PDK1 in vitro): < 100 nM

C[C@H](NC(=O)c1nc(C#N)cnc1NCc1ccc(-c2cn(CCN(C)C)c3ncnc(N)c23)cc1)c1ccc(F)c(F)c1 [Example 398, (S)-3-(4-(4-amino-7-(2-(dimethylamino)ethyl)-7H-pyrrolo[2,3-d]pyrimidin-5-yl)benzylamino)-6-cyano-N-(1-(3,4-difluorophenyl)ethyl)pyrazine-2-carboxamide]
EC50 [1, 2]: 1000 to 10000 nM | IC50 (PDK1; inhibition of PDK1 in vitro): < 100 nM

Cn1cnc2cnc3ccc(-c4ccc(CNc5ncccc5C(=O)NCc5cncc(F)c5)s4)cc3c21 [Example 354, N-((5-fluoropyridin-3-yl)methyl)-2-((5-(1-methyl-1H-imidazo[4,5-c]quinolin-8-yl)thiophen-2-ylmethyl)amino)nicotinamide]
EC50 [1, 2]: < 1000 nM | IC50 (PDK1; inhibition of PDK1 in vitro): < 100 nM

N#Cc1cnc(N[C@@H](COc2ccc3[nH]c(=O)[nH]c3c2)c2ccccc2)c(C(=O)NCc2ccc(F)cc2)n1 [Example 16.12, (R)-6-cyano-N-(4-fluorobenzyl)-3-(2-(2-oxo-2,3-dihydro-1H-benzo[d]imidazol-5-yloxy)-1-phenylethylamino) pyrazine-2-carboxamide]
EC50 [1, 4]: < 1000 nM | IC50 (PDK1; [3]): < 100 nM

Cc1nc(/C=C2\C(=O)Nc3cc(/C=C/CNc4ncccc4C(=O)NCc4ccc(F)c(F)c4)ccc32)c[nH]1 [Example 15.8, N-(3,4-Difluoro-benzyl)-2-((E)-3-{3-[1-(2-methyl-1H-imidazol-4-yl)-meth-(Z)-ylidene]-2-oxo-2,3-dihydro-1H-indol-6-yl}-allylamino)-nicotinamide]
EC50 [1, 4]: < 1000 nM | IC50 (PDK1; [3]): < 100 nM

C[C@H](NC(=O)c1cc(C#N)cnc1NCc1ccc(-c2cn(S(=O)(=O)c3ccccc3)nc2N)cc1)c1ccc(F)cc1 [Example 143, (S)-2-(4-(3-amino-1-(phenylsulfonyl)-1H-pyrazol-4-yl)benzylamino)-5-cyano-N-(1-(4-fluorophenyl)ethyl) nicotinamide]
EC50 [1, 2]: > 10000 nM | IC50 (PDK1; inhibition of PDK1 in vitro): > 5000 nM

C#CCNC(=O)c1cc(C(F)(F)F)cnc1NCc1ccc(-c2cnc3[nH]nc(N)c3c2)cc1 [Example 271, 2-(4-(3-amino-1H-pyrazolo [3,4-b]pyridin-5-yl)benzylamino)-N-(prop-2-ynyl)-5-(trifluoromethyl) nicotinamide]
EC50 [1, 2]: 1000 to 10000 nM | IC50 (PDK1; inhibition of PDK1 in vitro): 100 to 1000 nM
